Data as given in patent US11639343B2, “Compounds targeting and degrading BCR-ABL protein and its antitumor application” (ShanghaiTech University, priority 2019, dated 2023).

Columns and labels:
U937 (BCR-ABL-) cells = assay: CCK-8 proliferation inhibition, U937 cells; type: cell-based, human; details: Homo sapiens, U-937; CCK-8, 48 hours of drug treatment, highest concentration 10 μM; read-out: Proliferative inhibitory activity (IC50, nM) U937 (BCR-ABL-);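 also: Ten-point threefold dilution series, absorbance at 450 nm after 2 h with CCK-8 reagent, DMSO as negative control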
K562 (BCR-ABL+) cells = assay: CCK-8 proliferation inhibition, K562 cells; type: cell-based, human; details: Homo sapiens, K562, 48 h, CCK-8, 48 hours of drug treatment; read-out: Proliferative inhibitory activity (IC50, nM) K562 (BCR-ABL+);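 also: Ten-point threefold dilution series starting at 10 µM, absorbance at 450 nm after 2 h with CCK-8, DMSO as negative control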
HEK293 (BCR-ABL-) cells = assay: CCK-8 proliferation inhibition, HEK293 cells; details: Homo sapiens, HEK293, 48 h, read-out: Proliferative inhibitory activity (IC50, nM) HEK293 (BCR-ABL-);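 also: Ten-point threefold dilution series starting at 10 µM, CCK-8 absorbance at 450 nm read after 2 h reagent incubation, DMSO-treated cells as negative control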
BCR-ABL protein = BCR-ABL protein (Homo sapiens, UniProt P00519); assay: Western blot degradation of BCR-ABL in K562 cells; type: cell-based; set-up: Western blot was used to detect the expression of BCR-ABL and c-ABL protein in K562 cells; BCR (fusion partner, P11274); endogenous in cells; host or cells: K562; the other entry of the earlier key: BCR (P11274, Breakpoint cluster region protein); details: 16 hours, 1 nM-10 μM
Sequence of BCR-ABL protein (P00519 with tags, fused parts or gaps): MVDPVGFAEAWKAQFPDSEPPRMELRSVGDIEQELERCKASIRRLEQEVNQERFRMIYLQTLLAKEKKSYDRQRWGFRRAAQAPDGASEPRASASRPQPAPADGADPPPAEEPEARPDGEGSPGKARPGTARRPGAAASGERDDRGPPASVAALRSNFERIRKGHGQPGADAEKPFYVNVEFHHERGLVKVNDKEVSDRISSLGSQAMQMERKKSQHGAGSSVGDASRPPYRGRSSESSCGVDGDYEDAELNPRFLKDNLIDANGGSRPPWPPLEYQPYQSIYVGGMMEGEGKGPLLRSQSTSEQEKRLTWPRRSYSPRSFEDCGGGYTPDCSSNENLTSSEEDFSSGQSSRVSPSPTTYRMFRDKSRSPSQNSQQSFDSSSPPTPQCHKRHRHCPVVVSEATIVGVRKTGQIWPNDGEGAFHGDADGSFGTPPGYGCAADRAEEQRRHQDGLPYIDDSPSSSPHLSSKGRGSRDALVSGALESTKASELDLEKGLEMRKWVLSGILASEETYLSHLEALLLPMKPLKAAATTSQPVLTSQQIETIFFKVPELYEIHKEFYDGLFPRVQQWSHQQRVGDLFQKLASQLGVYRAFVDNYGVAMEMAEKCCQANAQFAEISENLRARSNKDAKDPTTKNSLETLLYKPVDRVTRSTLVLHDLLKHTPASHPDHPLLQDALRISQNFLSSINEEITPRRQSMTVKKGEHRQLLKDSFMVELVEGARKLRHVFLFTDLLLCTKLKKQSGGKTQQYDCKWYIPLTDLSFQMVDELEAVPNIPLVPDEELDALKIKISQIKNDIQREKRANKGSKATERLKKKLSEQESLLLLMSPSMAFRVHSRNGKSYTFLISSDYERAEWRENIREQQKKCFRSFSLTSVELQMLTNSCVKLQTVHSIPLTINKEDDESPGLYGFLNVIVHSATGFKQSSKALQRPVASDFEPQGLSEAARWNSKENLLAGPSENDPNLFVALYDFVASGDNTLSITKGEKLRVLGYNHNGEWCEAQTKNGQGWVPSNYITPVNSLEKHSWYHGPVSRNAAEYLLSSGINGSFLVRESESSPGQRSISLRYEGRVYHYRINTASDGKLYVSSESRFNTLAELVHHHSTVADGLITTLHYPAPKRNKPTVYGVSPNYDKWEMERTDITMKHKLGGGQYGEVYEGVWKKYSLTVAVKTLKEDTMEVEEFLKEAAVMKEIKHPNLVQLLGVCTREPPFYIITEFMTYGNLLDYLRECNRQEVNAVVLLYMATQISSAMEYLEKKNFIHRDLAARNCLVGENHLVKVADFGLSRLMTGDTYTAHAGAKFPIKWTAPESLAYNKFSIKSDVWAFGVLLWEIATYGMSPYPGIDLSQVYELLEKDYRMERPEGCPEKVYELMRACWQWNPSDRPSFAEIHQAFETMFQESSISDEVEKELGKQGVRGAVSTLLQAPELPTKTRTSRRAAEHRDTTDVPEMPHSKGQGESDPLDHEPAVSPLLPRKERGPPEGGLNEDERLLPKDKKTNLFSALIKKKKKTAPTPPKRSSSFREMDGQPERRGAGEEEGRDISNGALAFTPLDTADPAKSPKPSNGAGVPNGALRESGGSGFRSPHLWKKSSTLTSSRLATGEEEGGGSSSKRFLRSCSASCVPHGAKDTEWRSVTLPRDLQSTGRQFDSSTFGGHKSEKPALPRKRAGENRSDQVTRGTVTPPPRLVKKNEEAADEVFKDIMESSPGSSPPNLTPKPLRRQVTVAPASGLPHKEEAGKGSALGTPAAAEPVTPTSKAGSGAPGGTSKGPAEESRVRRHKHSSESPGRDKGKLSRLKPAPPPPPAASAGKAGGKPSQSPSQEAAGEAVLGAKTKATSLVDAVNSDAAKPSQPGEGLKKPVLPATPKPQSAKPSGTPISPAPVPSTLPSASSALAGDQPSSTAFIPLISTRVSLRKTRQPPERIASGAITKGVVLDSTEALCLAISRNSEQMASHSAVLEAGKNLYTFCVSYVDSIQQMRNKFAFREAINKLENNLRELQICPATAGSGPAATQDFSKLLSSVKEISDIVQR
Procedure: (§1) (1) Cell seed: K562 cells were added to the 24 well plates, with a cell density of 3×10^5/ml and a total volume of 1.5 ml; Five concentration gradients, 1 nm, 10 nm, 100 nm, 1 μM, and 10 μM, were respectively set for PROTAD series compounds and comparative examples compounds (Dasa-6-2-2-6-VHL, Dasa-6-2-6-CRBN). […] After 16 hours of drug treatment, the cells were collected in 1.5 ml ep tube, centrifuged at 3000 rpm for 3 minutes, and then added 30 μL PBS and 30 ul 2×SDS to cell precipitated, lysate Heat at 100° C. for 5 minutes, then place on ice for 5 minutes, centrifuged at 10000 rpm for 5 minutes, and take the supernatant as the total protein extracted. The protein concentration was determined by the Bradford method. After each sample was at the same concentration, bromophenol blue was added as the sample indicator.
(§2) (2) Electrophoresis: the starting voltage of the BioRad electrophoresis instrument was 80V, and as the dye enters the separation gel, the voltage was adjusted to 120V;
(§3) (3) Film transfer: prepare filter paper and nitrocellulose membrane with the corresponding size of the gel, filter paper, and NC film were soaked in transfer electrophoresis buffer.
(§4) DC50 (concentration required to degrade protein by half) were calculated based on the intensity from western blot, and data were analyzed via Prism GraphPad with non-linear regression.

c-ABL protein = c-ABL protein (Homo sapiens, UniProt P00519); assay: Western blot degradation of c-ABL in K562 cells; type: cell-based; set-up: Western blot was used to detect the expression of BCR-ABL and c-ABL protein in K562 cells; endogenous in cells; host or cells: K562; details: 16 hours, 1 nM-10 μM
Sequence of c-ABL protein (P00519 whole entry): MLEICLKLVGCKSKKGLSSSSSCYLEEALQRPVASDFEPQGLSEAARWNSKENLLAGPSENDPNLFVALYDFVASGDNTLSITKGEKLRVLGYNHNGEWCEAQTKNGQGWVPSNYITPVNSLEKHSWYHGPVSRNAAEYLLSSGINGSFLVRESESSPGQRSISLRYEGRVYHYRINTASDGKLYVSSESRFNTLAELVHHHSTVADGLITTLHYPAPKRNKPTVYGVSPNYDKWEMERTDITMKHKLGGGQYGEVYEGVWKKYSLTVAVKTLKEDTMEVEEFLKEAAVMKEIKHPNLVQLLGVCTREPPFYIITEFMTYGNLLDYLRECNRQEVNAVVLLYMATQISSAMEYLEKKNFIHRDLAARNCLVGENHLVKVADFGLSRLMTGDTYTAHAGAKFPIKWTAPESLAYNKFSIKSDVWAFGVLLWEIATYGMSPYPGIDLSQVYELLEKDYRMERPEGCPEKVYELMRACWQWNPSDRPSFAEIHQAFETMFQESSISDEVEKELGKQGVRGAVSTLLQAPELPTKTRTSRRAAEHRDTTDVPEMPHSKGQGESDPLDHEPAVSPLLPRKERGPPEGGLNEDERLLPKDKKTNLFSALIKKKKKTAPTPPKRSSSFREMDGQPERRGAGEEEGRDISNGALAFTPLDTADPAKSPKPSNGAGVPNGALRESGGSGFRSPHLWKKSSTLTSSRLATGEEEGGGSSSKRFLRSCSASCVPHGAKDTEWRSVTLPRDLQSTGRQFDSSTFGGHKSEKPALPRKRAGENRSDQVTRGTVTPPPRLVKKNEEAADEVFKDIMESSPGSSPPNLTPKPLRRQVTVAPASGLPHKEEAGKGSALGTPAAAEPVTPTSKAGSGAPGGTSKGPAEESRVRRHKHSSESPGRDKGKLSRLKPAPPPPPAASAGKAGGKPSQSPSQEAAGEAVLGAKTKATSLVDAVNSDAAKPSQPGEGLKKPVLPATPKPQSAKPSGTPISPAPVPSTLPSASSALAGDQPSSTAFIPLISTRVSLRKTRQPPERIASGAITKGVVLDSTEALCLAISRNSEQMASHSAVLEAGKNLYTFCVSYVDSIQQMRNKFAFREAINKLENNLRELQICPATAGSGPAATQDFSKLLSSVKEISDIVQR
Procedure: as §1, §2, §3, §4

Structure (SMILES)	IC50 (U937 (BCR-ABL-) cells)	IC50 (K562 (BCR-ABL+) cells)	IC50 (HEK293 (BCR-ABL-) cells)	DC50 (BCR-ABL protein)	DC50 (c-ABL protein)
COc1cc(Nc2c(C#N)cnc3cc(OCCCN4CCN(C(=O)CCCCCNc5cccc6c5C(=O)N(C5CCC(=O)NC5=O)C6=O)CC4)c(OC)cc23)c(Cl)cc1Cl (centres unmarked) [SIAIS151166, 4-((2,4-dichloro-5-methoxyphenyl)amino)-7-(3-(4-(6-((2-(2,6-dioxopiperidin-3-yl)-1,3-dioxoisoindolin-4-yl)amino)hexanoyl)piperazin-1-yl)propoxy)-6-methoxyquinoline-3-carbonitrile]	> 10000 nM	894 nM	> 10000 nM	10 to 100 nM	10 to 100 nM
Cc1nc(Nc2ncc(C(=O)Nc3c(C)cccc3Cl)s2)cc(N2CCN(C(=O)CCOCCOCCOCCOCCNc3cccc4c3C(=O)N(C3CCC(=O)NC3=O)C4=O)CC2)n1 (centres unmarked) [SIAIS151068, N-(2-chloro-6-methylphenyl)-2-((6-(4-(1-((2-(2,6-dioxopiperidin-3-yl)-1,3-dioxoisoindolin-4-yl)amino)-3,6,9,12-tetraoxapentadecan-15-oyl)piperazin-1-yl)-2-methylpyrimidin-4-yl)amino)thiazole-5-carboxamide]	> 10000 nM	40.4 nM	> 10000 nM	1 to 10 nM	10 to 100 nM
COc1cc(Nc2c(C#N)cnc3cc(OCCCN4CCN(C(=O)CCOCCOCCOCCOCCNc5cccc6c5C(=O)N(C5CCC(=O)NC5=O)C6=O)CC4)c(OC)cc23)c(Cl)cc1Cl (centres unmarked) [SIAIS151160, 4-((2,4-dichloro-5-methoxyphenyl)amino)-7-(3-(4-(1-((2-(2,6-dioxopiperidin-3-yl)-1,3-dioxoisoindolin-4-yl)amino)-3,6,9,12-tetraoxapentadecan-15-oyl)piperazin-1-yl)propoxy)-6-methoxyquinoline-3-carbonitrile]	> 10000 nM	4650 nM	> 10000 nM	10 to 100 nM	10 to 100 nM
Cc1nc(Nc2ncc(C(=O)Nc3c(C)cccc3Cl)s2)cc(N2CCN(C(=O)CCOCCOCCOCCNc3cccc4c3C(=O)N(C3CCC(=O)NC3=O)C4=O)CC2)n1 (centres unmarked) [SIAIS151067, N-(2-chloro-6-methylphenyl)-2-((6-(4-(3-(2-(2-(2-((2-(2,6-dioxopiperidin-3-yl)-1,3-dioxoisoindolin-4-yl)amino)ethoxy)ethoxy)ethoxy)propanoyl)piperazin-1-yl)-2-methylpyrimidin-4-yl)amino)thiazole-5-carboxamide]	> 10000 nM	14.8 nM	> 10000 nM	1 to 10 nM	10 to 100 nM
COc1cc(Nc2c(C#N)cnc3cc(OCCCN4CCN(C(=O)CCOCCOCCOCCOCCOCCNc5cccc6c5C(=O)N(C5CCC(=O)NC5=O)C6=O)CC4)c(OC)cc23)c(Cl)cc1Cl (centres unmarked) [SIAIS151161, 4-((2,4-dichloro-5-methoxyphenyl)amino)-7-(3-(4-(1-((2-(2,6-dioxopiperidin-3-yl)-1,3-dioxoisoindolin-4-yl)amino)-3,6,9,12,15-pentaoxaoctadecan-18-oyl)piperazin-1-yl)propoxy)-6-methoxyquinoline-3-carbonitrile]	> 10000 nM	7260 nM	> 10000 nM	100 to 1000 nM	100 to 1000 nM
Cc1nc(Nc2ncc(C(=O)Nc3c(C)cccc3Cl)s2)cc(N2CCN(C(=O)CCCCCC(=O)N[C@H](C(=O)N3C[C@H](O)C[C@H]3C(=O)NCc3ccc(-c4scnc4C)cc3)C(C)(C)C)CC2)n1 [SIAIS151177, N-(2-chloro-6-methylphenyl)-2-((6-(4-(7-(((S)-1-((2S,4R)-4-hydroxy-2-((4-(4-methylthiazol-5-yl)benzyl)carbamoyl)pyrrolidin-1-yl)-3,3-dimethyl-1-oxobutan-2-yl)amino)-7-oxoheptanoyl)piperazin-1-yl)-2-methylpyrimidin-4-yl)amino)thiazole-5-carboxamide]	> 10000 nM	37.6 nM	> 10000 nM	1 to 10 nM	10 to 100 nM
COc1cc(Nc2c(C#N)cnc3cc(OCCCN4CCN(C(=O)CCC(=O)Nc5cccc6c5CN(C5CCC(=O)NC5=O)C6=O)CC4)c(OC)cc23)c(Cl)cc1Cl (centres unmarked) [SIAIS164105, 4-(4-(3-((3-cyano-4-((2,4-dichloro-5-methoxyphenyl)amino)-6-methoxyquinolin-7-yl)oxy)propyl)piperazin-1-yl)-N-(2-(2,6-dioxopiperidin-3-yl)-1-oxoisoindolin-4-yl)-4-oxobutanamide]	> 10000 nM	459 nM	> 10000 nM	10 to 100 nM	10 to 100 nM
Cc1nc(Nc2ncc(C(=O)Nc3c(C)cccc3Cl)s2)cc(N2CCN(C(=O)CCCCNc3cccc4c3C(=O)N(C3CCC(=O)NC3=O)C4=O)CC2)n1 (centres unmarked) [SIAIS151071, N-(2-chloro-6-methylphenyl)-2-((6-(4-(5-((2-(2,6-dioxopiperidin-3-yl)-1,3-dioxoisoindolin-4-yl)amino)pentanoyl)piperazin-1-yl)-2-methylpyrimidin-4-yl)amino)thiazole-5-carboxamide]	> 10000 nM	0.55 nM	> 10000 nM	< 1 nM	1 to 10 nM
Cc1nc(Nc2ncc(C(=O)Nc3c(C)cccc3Cl)s2)cc(N2CCN(C(=O)CCOCCOCCOCCOCCOCCNc3cccc4c3C(=O)N(C3CCC(=O)NC3=O)C4=O)CC2)n1 (centres unmarked) [SIAIS151069, N-(2-chloro-6-methylphenyl)-2-((6-(4-(1-((2-(2,6-dioxopiperidin-3-yl)-1,3-dioxoisoindolin-4-yl)amino)-3,6,9,12,15-pentaoxaoctadecan-18-oyl)piperazin-1-yl)-2-methylpyrimidin-4-yl)amino)thiazole-5-carboxamide]	> 10000 nM	31.9 nM	> 10000 nM	1 to 10 nM	10 to 100 nM
Cc1nc(Nc2ncc(C(=O)Nc3c(C)cccc3Cl)s2)cc(N2CCN(C(=O)CCCC(=O)N[C@H](C(=O)N3C[C@H](O)C[C@H]3C(=O)NCc3ccc(-c4scnc4C)cc3)C(C)(C)C)CC2)n1 [SIAIS151175, N-(2-chloro-6-methylphenyl)-2-((6-(4-(5-(((S)-1-((2S,4R)-4-hydroxy-2-((4-(4-methylthiazol-5-yl)benzyl)carbamoyl)pyrrolidin-1-yl)-3,3-dimethyl-1-oxobutan-2-yl)amino)-5-oxopentanoyl)piperazin-1-yl)-2-methylpyrimidin-4-yl)amino)thiazole-5-carboxamide]	> 10000 nM	87 nM	3890 nM	10 to 100 nM	100 to 1000 nM
Cc1nc(Nc2ncc(C(=O)Nc3c(C)cccc3Cl)s2)cc(N2CCN(C(=O)CCCC(=O)Nc3cccc4c3C(=O)N(C3CCC(=O)NC3=O)C4=O)CC2)n1 (centres unmarked) [SIAIS184053, N-(2-chloro-6-methylphenyl)-2-((6-(4-(5-((2-(2,6-dioxopiperidin-3-yl)-1,3-dioxoisoindolin-4-yl)amino)-5-oxopentanoyl)piperazin-1-yl)-2-methylpyrimidin-4-yl)amino)thiazole-5-carboxamide]	> 10000 nM	16.5 nM	> 10000 nM	10 to 100 nM	10 to 100 nM
Cc1nc(Nc2ncc(C(=O)Nc3c(C)cccc3Cl)s2)cc(N2CCN(C(=O)CCCCC(=O)N[C@H](C(=O)N3C[C@H](O)C[C@H]3C(=O)NCc3ccc(-c4scnc4C)cc3)C(C)(C)C)CC2)n1 [SIAIS151176, N-(2-chloro-6-methylphenyl)-2-((6-(4-(6-(((S)-1-((2S,4R)-4-hydroxy-2-((4-(4-methylthiazol-5-yl)benzyl)carbamoyl)pyrrolidin-1-yl)-3,3-dimethyl-1-oxobutan-2-yl)amino)-6-oxohexanoyl)piperazin-1-yl)-2-methylpyrimidin-4-yl)amino)thiazole-5-carboxamide]	> 10000 nM	89 nM	> 10000 nM	10 to 100 nM	100 to 1000 nM
Cc1nc(Nc2ncc(C(=O)Nc3c(C)cccc3Cl)s2)cc(N2CCN(C(=O)CCCC(=O)Nc3cccc4c3CN(C3CCC(=O)NC3=O)C4=O)CC2)n1 (centres unmarked) [SIAIS164110, N-(2-chloro-6-methylphenyl)-2-((6-(4-(5-((2-(2,6-dioxopiperidin-3-yl)-1-oxoisoindolin-4-yl)amino)-5-oxopentanoyl)piperazin-1-yl)-2-methylpyrimidin-4-yl)amino)thiazole-5-carboxamide]	> 10000 nM	1.03 nM	> 10000 nM	10 to 100 nM	10 to 100 nM
